The source of these data is US20240132955A1, “BENIGN SCAR-FORMING CLEAVABLE LINKERS” (Ultima Genomics, Inc., priority 2021, published 2024).

Assay type in all cases: biochemical
The test system of test [1] is template nucleic acid sequence. As to the kind of experiment: Sequencing assays with different capping reagents (Example 6, FIG. 11). Conditions: for fluorescence intensities for subsequent incorporation steps: capping between flows, compared with assay without capping reagents. Here is the method: Extension and sequencing performance were tested for a set of labeled nucleotides and capping reagents. The labeled nucleotides used in this example consisted of the dye-linkers as shown in FIG. 9A on each of the four nucleotides. A set of sequencing assays were performed by extending a primer against a template nucleic acid sequence in the presence of alternating flows of single fluorescently labeled nucleotides provided as cycles of U, A, C, and then G. In between each flow, the fluorescent labels were detected, cleaved, and optionally capped with one of ethyl propiolate (EP), iodoacetamide (IAc), methyl methanethiosulfonate (MMTS), or dipyridyl disulfide (DPDS). Each labeled nucleotide flow was then followed by a “dark tap” flow consisting of 100% unlabeled nucleotides to maintain phasing.
FIG. 11 summarizes the results of the sequencing assays in table 1100. Table 1100 provides the results of uridine, adenosine, cytidine, and guanosine incorporation steps performed without any capping agents or in the presence of different capping agents. Assay A illustrates results from sequencing assays performed without capping reagents. Following a high-efficiency first nucleotide incorporation step with labeled uridine, subsequent nucleotide incorporation steps were suppressed, including subsequent uridine additions.

In test [2] the test system is template nucleic acid starting with AGTCTTTGGGTT
As to the kind of experiment: Sequencing assays with capping or immolating linkers (Example 9, FIG. 16). Conditions: DPDS in U dark tap flows; 100% labeled U, 10% A, 20% C, 10% G; compared to FIG. 16A. As for the experimental part: In this example, a set of sequencing assays were performed by extending a primer against the same template nucleic acid starting with AGTCTTTGGGTT in the presence of alternating flows of single fluorescently labeled nucleotides provided as cycles of U, A, C, and then G. In between each flow, the fluorescent labels were detected, cleaved, and optionally capped with dipyridyl disulfide (DPDS). Each labeled nucleotide flow was then followed by a “dark tap” flow consisting of 100% unlabeled nucleotides to maintain phasing. Furthermore, some assays utilized nucleotides with immolating linkers.
In each figure, the y-axes provide fluorescence intensity following labeled nucleotide incorporation, and the four plots (from top to bottom) separately provide the results of uridine, adenosine, cytidine, and guanosine incorporation steps, with individual cycles progressing from left to right. In particular, a closer look is taken at the first 4 flow-cycles of U-A-C-G, where nucleotides are expected to be incorporated in the order of T-C (cycle 1; U, A, C, G flows being a complete single cycle), A-G (cycle 2), AAA-CCC (cycle 3), AA (cycle 4). Here nucleotides incorporated in each U-A-C-G flow-cycle are separated with square brackets. […]

The test system of test [3] is template strand comprising the 3′ sequence TCAGTGGTTG
The test is described as follows: Sequencing assay with capping reagent DPDS in U dark tap flows (Example 5). Conditions: DPDS only in U dark tap flows; 100% labeled U, 10% A, 20% C, 10% G. An excerpt: In this example, a set of labeled nucleotide reagents were contacted to a primer hybridized to a template strand comprising the 3′ sequence TCAGTGGTTG under conditions suitable for extension. Fluorescently labeled adenosine, cytidine, and guanosine nucleotides were of the structure indicated in FIG. 10A, while labeled uridine nucleotides were of the structure provided in FIG. 10B. Different canonical nucleotide types were provided in separate, sequential flows, starting with uridine (U), followed by adenosine (A), cytidine (C), and finally guanosine (G), before repeating the cycle beginning again with U. Flows contained anywhere from 10% to 100% labeled nucleotides, with the remaining nucleotides provided in their natural, unlabeled form. In between each flow, the fluorescent labels were detected, cleaved, and optionally capped. Each labeled nucleotide flow was then followed by a “dark tap” flow consisting of 100% unlabeled nucleotides in order to maintain phasing.
FIG. 10E summarizes the sequencing results of an assay utilizing flows with 100% labeled U, 10% labeled A, 20% labeled C, 10% labeled G, and the capping reagent DPDS. provided in only the U “dark tap” nucleotide flows. […] This was likely due to capping reagent cleavage from the nucleotide scars, as the linker cleavage reagent was likely also active in removing caps from scar moieties. […]

In the case of `C#CC(=O)OCC` [EP, ethyl propiolate], in test [1], the “fluorescence intensities for subsequent incorporation steps” value is listed as “high intensities”.
On the same count and under the same terms, the value for `NC(=O)CI` [IAc, iodoacetamide] was “high intensities”.
In the case of dipyridyl disulfide [DPDS], the “labeled A incorporation” value in test [2] is recorded as “greatly enhanced”. Further, the “incorporation efficiency for the next flow (A)” value in test [3] is listed as “increased the incorporation efficiency for the next flow”. Besides, in test [1] (among EP, IAc, MMTS, DPDS), the “effectiveness as capping reagent” value was “most effective”. Moreover, the “fluorescence intensities from subsequent nucleotide incorporations, comparison among capping assays” value in test [1] (assays B-E) is given as “highest intensities”. Besides, the “fluorescence intensities for subsequent incorporation steps” value in test [1] is “high intensities”.
